Target: T1, α4β7 integrin (Homo sapiens, UniProt P13612+P26010)
T1 construct: a cell line RPMI-8866, which is known to express α4β7 integrin; endogenous in cells; host or cells: RPMI-8866 (human B cell line)
T1 sequence (P13612 34-1032): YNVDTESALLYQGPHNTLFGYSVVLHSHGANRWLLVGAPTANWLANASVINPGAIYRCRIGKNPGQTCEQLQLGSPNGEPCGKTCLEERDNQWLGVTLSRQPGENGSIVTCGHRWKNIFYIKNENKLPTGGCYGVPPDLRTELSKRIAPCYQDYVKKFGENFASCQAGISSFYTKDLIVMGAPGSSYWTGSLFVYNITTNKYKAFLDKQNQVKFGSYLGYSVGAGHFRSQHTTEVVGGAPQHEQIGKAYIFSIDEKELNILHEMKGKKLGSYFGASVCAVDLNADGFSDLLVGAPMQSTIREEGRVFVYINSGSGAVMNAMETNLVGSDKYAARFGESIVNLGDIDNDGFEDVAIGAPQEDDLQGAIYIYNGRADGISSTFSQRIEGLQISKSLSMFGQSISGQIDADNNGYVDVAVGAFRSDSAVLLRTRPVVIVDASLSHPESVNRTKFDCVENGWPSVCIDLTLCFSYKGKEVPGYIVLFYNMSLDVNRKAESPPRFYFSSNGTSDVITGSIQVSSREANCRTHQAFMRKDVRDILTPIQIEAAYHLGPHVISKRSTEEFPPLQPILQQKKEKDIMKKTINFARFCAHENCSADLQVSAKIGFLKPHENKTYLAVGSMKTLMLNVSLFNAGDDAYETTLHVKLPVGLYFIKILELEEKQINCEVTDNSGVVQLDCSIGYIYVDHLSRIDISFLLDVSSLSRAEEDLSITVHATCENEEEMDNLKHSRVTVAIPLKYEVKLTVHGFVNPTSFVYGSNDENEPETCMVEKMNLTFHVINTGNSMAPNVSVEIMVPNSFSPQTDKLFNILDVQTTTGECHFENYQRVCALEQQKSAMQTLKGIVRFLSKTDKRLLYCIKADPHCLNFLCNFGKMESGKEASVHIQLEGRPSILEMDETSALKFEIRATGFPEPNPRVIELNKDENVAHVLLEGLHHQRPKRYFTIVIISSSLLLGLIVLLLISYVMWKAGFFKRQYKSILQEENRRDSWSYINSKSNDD
T1 sequence (P26010 20-798): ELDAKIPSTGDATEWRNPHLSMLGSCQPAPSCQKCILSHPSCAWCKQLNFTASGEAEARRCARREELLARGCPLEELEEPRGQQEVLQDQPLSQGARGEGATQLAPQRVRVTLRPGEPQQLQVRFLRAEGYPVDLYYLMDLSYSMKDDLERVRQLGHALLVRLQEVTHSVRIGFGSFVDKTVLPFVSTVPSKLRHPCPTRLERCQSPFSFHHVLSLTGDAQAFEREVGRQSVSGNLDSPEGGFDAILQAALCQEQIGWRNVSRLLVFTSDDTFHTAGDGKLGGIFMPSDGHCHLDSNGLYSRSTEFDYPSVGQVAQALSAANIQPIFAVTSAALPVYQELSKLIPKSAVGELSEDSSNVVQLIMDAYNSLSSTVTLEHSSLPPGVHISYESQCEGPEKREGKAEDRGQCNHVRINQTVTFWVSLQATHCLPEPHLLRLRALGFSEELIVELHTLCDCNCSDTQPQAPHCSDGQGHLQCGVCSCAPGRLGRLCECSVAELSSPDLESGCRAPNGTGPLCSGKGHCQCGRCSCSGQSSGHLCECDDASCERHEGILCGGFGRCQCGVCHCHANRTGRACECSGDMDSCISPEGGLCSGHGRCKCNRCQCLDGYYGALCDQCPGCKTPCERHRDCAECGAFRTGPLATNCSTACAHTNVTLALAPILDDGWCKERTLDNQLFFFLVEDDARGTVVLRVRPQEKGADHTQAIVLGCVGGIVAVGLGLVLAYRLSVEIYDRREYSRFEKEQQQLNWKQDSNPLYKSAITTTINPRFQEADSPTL
Assay: MAdCAM-1/α4β7 integrin binding inhibitory activity evaluation test (RPMI-8866 cells binding to MAdCAM-1/Fc)
Format: cell-based
Settings: recombinant mouse MAdCAM-1/Fc, no serum
Description: (2) MAdCAM-1/α4β7 Integrin Binding Inhibitory Activity Evaluation Test
Each test substance was measured in terms of an ability to inhibit the MAdCAM-1 binding of a human B cell line, namely, a cell line RPMI-8866, which is known to express α4β7 integrin.
A solution of recombinant mouse MAdCAM-1/Fc (R&D Systems, Inc.) (0.75 μg/mL) diluted with a buffer A (carbonate buffer, pH 9.6) was added in an amount of 50 μL/well to a 96-well microtiter plate, followed by incubation at 4° C. overnight. After the plate was washed with PBS once, 150 μL/well of Block Ace (Snow Brand Milk Products Co., Ltd.) was added, followed by incubation at room temperature for 2 hours. After removal, the plate was washed with PBS once.
Then, 100 μL of the RPMI-8866 cells (2×10^6 cells/mL) and 100 μL of the test substance at each of various concentrations diluted with a binding buffer (DMEM containing 40 mM HEPES, 0.2% BSA, and 4 mM MnCl2) were added on the plate coated with the MAdCAM-1/Fc (5×10^5 cells/well), followed by incubation at 30° C. for 15 to 60 minutes. After the cells were bound to the wells, the plate was washed with PBS to remove unbound cells. A buffer C (PBS containing 1.5% Triton X-100) in an amount 50 μL/well was added to the plate to lyse the bound RPMI-8866 cells. After 30 μL of a substrate buffer (Promega, CytoTox 96 Non-Radioactive Cytotoxicity Assay) was added to 30 μL of the cell lysate, a reaction was allowed to proceed at room temperature in the dark for 30 minutes. After 30 μL of a stop solution (Promega, CytoTox 96 Non-Radioactive Cytotoxicity Assay) was added to each, and then an absorbance at 490 nm was measured using a plate reader. The absorbance obtained here represents a detection result of an activity of lactate dehydrogenase (LDH) eluted in the supernatant of each well, that is, the absorbance is proportional to the number of RPMI-8866 cells bound to the MAdCAM-1 and thus remaining on the plate. The test was performed in duplicate. Provided that the absorbance of the well containing no test substance was 100%, a cell binding rate with the test substance at each of the various concentrations was figured out, and a concentration IC50 which brought about 50% binding inhibition was calculated.

| IC50 | Compound |
| --- | --- |
| 1.3 nM | Cc1cn(C)c(=O)n(-c2ccc(C[C@H](NC(=O)c3cc(F)c(NS(=O)(=O)c4ccc(NC(=O)C(C)(C)C(F)(F)F)cc4)cc3F)C(=O)O)cn2)c1=O [Compound A58] |
| 3.3 nM | Cn1ccc(=O)n(-c2ccc(C[C@H](NC(=O)c3cc(F)c(NS(=O)(=O)c4ccc(NC(=O)C5(C#N)CC5)cc4)cc3F)C(=O)O)cn2)c1=O [Compound A59] |
| 2.3 nM | Cc1cn(C)c(=O)n(-c2ccc(C[C@H](NC(=O)c3cc(F)c(NS(=O)(=O)c4ccc(NC(=O)C5(C#N)CC5)cc4)cc3F)C(=O)O)cn2)c1=O [Compound A60] |
| 6.9 nM | CCC(CC)C(=O)Nc1ccc(S(=O)(=O)Nc2cc(F)c(C(=O)N[C@@H](Cc3ccc(-n4c(=O)ccn(C)c4=O)nc3)C(=O)O)cc2F)cc1 [Compound A61] |
| 4.9 nM | Cn1ccc(=O)n(-c2ccc(C[C@H](NC(=O)c3cc(F)c(NS(=O)(=O)c4ccc(NC(=O)C(C)(C)CO)cc4)cc3F)C(=O)O)cn2)c1=O [Compound A62] |
| 2.4 nM | Cc1cn(C)c(=O)n(-c2ccc(C[C@H](NC(=O)c3cc(F)c(NS(=O)(=O)c4ccc(NC(=O)C(C)(C)CO)cc4)cc3F)C(=O)O)cn2)c1=O [Compound A63] |
| 5.5 nM | Cn1ccc(=O)n(-c2ccc(C[C@H](NC(=O)c3cc(F)c(NS(=O)(=O)c4ccc(NC(=O)C5CCCC5)cc4)cc3F)C(=O)O)cn2)c1=O [Compound A64] |
| 3.3 nM | Cc1cn(C)c(=O)n(-c2ccc(C[C@H](NC(=O)c3cc(F)c(NS(=O)(=O)c4ccc(NC(=O)C5CCCC5)cc4)cc3F)C(=O)O)cn2)c1=O [Compound A65] |
| 3.3 nM | Cn1c(C(F)(F)F)cc(=O)n(-c2ccc(C[C@H](NC(=O)c3cc(F)c(NS(=O)(=O)c4ccc(NC(=O)C(C)(C)C)cc4)cc3F)C(=O)O)cn2)c1=O [Compound A66] |
| 1.9 nM | Cn1cc(C(F)(F)F)c(=O)n(-c2ccc(C[C@H](NC(=O)c3cc(F)c(NS(=O)(=O)c4ccc(NC(=O)C(C)(C)C)cc4)cc3F)C(=O)O)cn2)c1=O [Compound A67] |
| 5 nM | Cc1cn(C)c(=O)n(-c2ccc(C[C@H](NC(=O)c3cc(F)c(NS(=O)(=O)c4ccc(NC(=O)C#CC(C)(C)C)cc4)cc3F)C(=O)O)cn2)c1=O [Compound A68] |
| 1.8 nM | Cc1cn(C)c(=O)n(-c2ccc(C[C@H](NC(=O)c3cc(F)c(NS(=O)(=O)c4ccc(NC(=O)C(C)(C)C)cc4)cc3F)C(=O)O)nc2)c1=O [Compound A69] |
| 3.4 nM | Cn1ccc(=O)n(-c2ccc(C[C@H](NC(=O)c3cc(F)c(NS(=O)(=O)c4ccc(NC(=O)C(C)(C)C)cc4)cc3F)C(=O)O)nc2)c1=O [Compound A70] |
| 3.2 nM | Cc1cn(C)c(=O)n(-c2ccc(C[C@H](NC(=O)c3cc(F)c(NS(=O)(=O)c4ccc(NC(=O)C(C)C)cc4)cc3F)C(=O)O)cn2)c1=O [Compound A71] |
| 1.8 nM | Cc1cc(=O)n(-c2ccc(C[C@H](NC(=O)c3cc(F)c(NS(=O)(=O)c4ccc(NC(=O)C(C)(C)C)cc4)cc3F)C(=O)O)nc2)c(=O)n1C [Compound A72] |
| 2.2 nM | Cc1cn(C)c(=O)n(-c2ccc(C[C@H](NC(=O)c3cc(F)c(NS(=O)(=O)c4ccc(NC(=O)C(C)(C)C)s4)cc3F)C(=O)O)cn2)c1=O [Compound A73] |
| 7.8 nM | Cc1cn(C)c(=O)n(-c2ccc(C[C@H](NC(=O)c3cc(F)c(NS(=O)(=O)c4ccc5c(NC(=O)C(C)(C)C)c[nH]c5c4)cc3F)C(=O)O)cn2)c1=O [Compound A74] |
| 4 nM | CN1CCC(=O)N(c2ccc(C[C@H](NC(=O)c3cc(F)c(NS(=O)(=O)c4ccc(NC(=O)C(C)(C)C)cc4)cc3F)C(=O)O)cn2)C1=O [Compound A75, (2S)-2-[2,5-difluoro-4-[(4-pivalamidophenyl)sulfonamide]benzamido]-3-[6-(3-methyl-2,6-dioxotetrahydropyrimidin-1(2H)-yl)pyridin-3-yl]propanoic acid] |
| 2 nM | Cc1cn(C)c(=O)n(-c2ccc(C[C@H](NC(=O)c3cc(F)c(NS(=O)(=O)c4cc5cc(NC(=O)C(C)(C)C)ccc5[nH]4)cc3F)C(=O)O)cn2)c1=O [Compound A76] |
| 3.6 nM | Cc1cn(C)c(=O)n(-c2ccc(C[C@H](NC(=O)c3cc(F)c(NS(=O)(=O)c4c[nH]c5cc(NC(=O)C(C)(C)C)ccc45)cc3F)C(=O)O)cn2)c1=O [Compound A77] |
